The source of these data is patent US10189842B2 (Agency for Science, Technology and Research, priority 2013, dated 2019).

pIC50: −log10 of the molar value. Where two headings read alike, the source gives them in different places.

One series deals with HEK293-STF3A cells. Nature of the series: STF3A assay (luciferase reporter). The series is classed as cell-based, Human. The conditions noted are these: Homo sapiens, 24 h, 1 day of treatment. Put shortly: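 HEK293 cells carrying the STF reporter and expressing Wnt3A, seeded 2×10^4 per well overnight, then treated 1 day with compound at final 50 μM to 1.5 nM. Luciferase activity read by luminescence after Steady-Glo reagent, 10 min at room temperature.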
In general terms: In a reporter assay the amount or activity of a reporter protein is the signal.

Another series deals with MMTV-Wnt1 tumor. Put plainly: MMTV-Wnt1 mouse model. The series is classed as in vivo. The conditions noted are these: for % T/C / % TGI / NTRD / T/C / TRD: Day 14; for tumor growth: treated mice, FIG. 2 and FIG. 3. The method, then: 8-10 weeks old Female BALBc mice were anesthetised with 150 mg/kg Ketamine+75 mg/kg Xylazine. Under aseptic conditions, skin near the 4th mammary fat pad was incised. Mammary fat pad was tweaked with forceps and tumor fragment ˜2 mm^3 was implanted. The incision was closed using a tissue adhesive. Animals were randomised into groups of eight and treated daily with the test compounds for 14 days. Tumors were measured in two dimensions using calipers, and volume was calculated using the formula: Tumor Volume (mm^3)=[…]. Maximum tumor volume limit was 2000 mm^3.

The subject of another series is HPAF-II cells. Put plainly: Soft agar assay, HPAF-II. The series is classed as cell-based. The conditions noted are these: for pIC50: Homo sapiens. The method, then: (§1) AsPC-1 cells were maintained in RPMI164 supplemented with 10% FBS, 2 mM L-glutamine and P/S (100 units/ml penicillin and 100 μg/ml streptomycin). HPAF-II cells were maintained in MEM (Eagles′) supplemented with 10% FBS, 2 mM L-glutamine and P/S (100 units/ml penicillin and 100 μg/ml streptomycin). CFPAC-1 cells were maintained in Iscove MEM supplemented with 10% FBS, 2 mM L-glutamine and P/S (100 units/ml penicillin and 100 μg/ml streptomycin).
(§2) 600 μl of 0.6% agar was added to 24-well plate to form the base layer. Then a middle layer of 0.36% agar (containing 5000 cells and serially diluted compound) was added on to the base layer. Finally 500 μl of fresh growth medium was added to the top of the middle layer. The plates were incubated at 37° C. with 5% carbon dioxide in a humidified incubator for 2 weeks. Formation of colonies was observed using a light microscope. When the colony size was larger than 500 μm, 70 μl MTT (5 mg/ml) was added to each well and the plates were incubated at 37° C. for at least 2 hours. Colonies were counted with GelCount® instrument. The colony counts were plotted against compound concentrations using the GraphPad Prism software. The software was also used to perform non-linear curve fitting and calculation of compound concentration that inhibited 50% colony formation.

The test system of another series is AsPC-1 cells. Nature of the series: Soft agar assay, AsPC-1. The series is classed as cell-based. The conditions noted are these: for pIC50: Homo sapiens, ASPC1. As for the experimental part:
as §1, §2

The test system of a further series is mammalian PORCN. Nature of the series: PORCN-null HT1080 cells transfected with mammalian PORCN, WNT3A, STF reporter. The series is classed as cell-based. The note with it: luciferase, FIG. 1. The method, then:
PORCN-null HT1080 cells were transfected with mammalian or Xenopus PORCN expression plasmids, along with WNT3A, STF reporter and mCherry as transfection control. 6 hours after transfection, cells were treated with the compounds or DMSO as indicated, and the following day assayed for luciferase. Xenopus PORCN was resistant to the inhibitory effects of compounds.

A further series deals with CFPAC-1 cells. Put plainly: Soft agar assay, CFPAC-1. The series is classed as cell-based. The note with it: for pIC50: Homo sapiens. As for the experimental part: as §1, §2
The next series relates to V5-tagged Wnt3a. Nature of the series: Wnt3A palmitoylation assay. The series is classed as cell-based. The conditions noted are these: 100 nM compound, HeLa cells, FIG. 4. An excerpt: Wnt3A Palmitoylation Assay:
The assay used to determine the inhibition of the palmitoylation of Wnts by compound was described by Yap et al, (Yap MC, Kostiuk MA, Martin DD, Perinpanayagam MA, Hak PG, Siddam A, Majjigapu JR, Rajaiah G, Keller BO, Prescher JA, Wu P, Bertozzi CR, Falck JR, Berthiaume LG. 2010. Rapid and selective detection of fatty acylated proteins using omega-alkynyl-fatty acids and click chemistry. J Lipid Res. 51(6):1566-1580) with some modification. 3×10^6 HeLa cells were seeded in 10 cm culture dish and incubated at 37° C. overnight. […] After six hours, the cells were washed with PBS and treated with 100 μM alkyne palmitate in medium with 5% BSA. 100 nM compound or DMSO was added and the cells were incubated overnight at 37° C. The cells were lyzed and 600 μg cell lysate was collected and incubated with anti-V5 antibody (Invitrogen) followed by the pull down of V5-Wnt3a with the addition of Protein A/G agarose beads (Thermo scientific). The pulled down lysates containing V5-Wnt3a was click-reacted with biotin-azide (Invitrogen). The biotin-labelled protein lysate was then separated on SDS-PAGE and transferred to a nitrocellulose membrane. The membrane was incubated with primary anti-V5 antibody, followed by secondary anti-mouse Dylight 680 (Thermo scientific) to detect V5-Wnt3a. […]

On to `Cc1cc2n(n1)CCCN2C(=O)CCC(=O)Nc1ccc(-c2cccnc2)nn1` [Compound 51, 4-(2-methyl-6,7-dihydropyrazolo[1,5-a]pyrimidin-4(5H)-yl)-4-oxo-N-(6-(pyridin-3-yl)pyridazin-3-yl)butanamide], for which the pIC50 with HEK293-STF3A cells is over 7.00; with HPAF-II cells (Test 1, read-out: Test 1 IC50 (colony growth inhibitory concentration)) it was 8.10; in the series with HPAF-II cells (Test 2, read-out: Test 2 IC50 (colony growth inhibitory concentration)), 8.00; in the series with HPAF-II cells (mean of two independent experiments, read-out: Mean IC50 (colony growth inhibitory concentration)) it was 8.05; with AsPC-1 cells (AsPC-1, Test 1, read-out: Test 1 IC50 (colony growth inhibitory concentration)) it was 7.62; in the series on AsPC-1 cells (AsPC-1, Test 2, read-out: Test 2 IC50 (colony growth inhibitory concentration)) it was 8.00. For the same compound, the pIC50 in the series with AsPC-1 cells (AsPC-1, mean of two independent experiments, read-out: Mean IC50 (colony growth inhibitory concentration)) is 7.77; in the series with CFPAC-1 cells (CFPAC-1, Test 1, read-out: Test 1 IC50 (colony growth inhibitory concentration)), 7.24; in the series on CFPAC-1 cells (CFPAC-1, Test 2, read-out: Test 2 IC50 (colony growth inhibitory concentration)), 7.41; in the series with CFPAC-1 cells (CFPAC-1, mean of two independent experiments, read-out: Mean IC50 (colony growth inhibitory concentration)) it was 7.31. The figures for the “% T/C” value in the series with MMTV-Wnt1 tumor (1 mg/Kg daily), with MMTV-Wnt1 tumor (3 mg/Kg daily) and in the series on MMTV-Wnt1 tumor (10 mg/Kg daily) were 37.5%, 38.3% and 16.0%, respectively. In addition, the “% TGI” value with MMTV-Wnt1 tumor (1 mg/Kg daily) was 68%; in the series on MMTV-Wnt1 tumor (3 mg/Kg daily) it was 67%; with MMTV-Wnt1 tumor (10 mg/Kg daily), 91%. Moreover, the NTRD is listed as 1/8 in the series with MMTV-Wnt1 tumor (1 mg/Kg daily), 0/8 with MMTV-Wnt1 tumor (3 mg/Kg daily) and 0/8 in the series with MMTV-Wnt1 tumor (10 mg/Kg daily). The T/C with MMTV-Wnt1 tumor (1 mg/Kg daily) was 0.375; with MMTV-Wnt1 tumor (3 mg/Kg daily), 0.383; with MMTV-Wnt1 tumor (10 mg/Kg daily) it was 0.160. Besides, the TRD in the series on MMTV-Wnt1 tumor (1 mg/Kg daily), in the series with MMTV-Wnt1 tumor (3 mg/Kg daily) and with MMTV-Wnt1 tumor (10 mg/Kg daily) was 0/8 each time. In addition, the tumor growth entry in the series on MMTV-Wnt1 tumor is given as “decreased tumor growth in all the treated mice”. For the same compound, the results for the Maximum inhibition with HPAF-II cells, with AsPC-1 cells (AsPC-1) and in the series on CFPAC-1 cells (CFPAC-1) were 97%, 76% and 79%, respectively. In the series on mammalian PORCN, the “inhibition of the activity of mammalian porcupine” value is on record as “inhibit the activity of mammalian porcupine”. Further, the “Palmitoylation of Wnt3a” value with V5-tagged Wnt3a is on record as “inhibited”.

Regarding `Cc1cncc(-c2ccc(NC(=O)CCC(=O)N3CCCn4nc(C)cc43)cn2)c1` [Compound 110, N-(5′-methyl-2,3′-bipyridin-5-yl)-4-(2-methyl-6,7-dihydropyrazolo[1,5-a]pyrimidin-4(5H)-yl)-4-oxobutanamide], the pIC50 in the series on HEK293-STF3A cells was over 7.00. In the series on MMTV-Wnt1 tumor, the tumor growth entry is “decreased tumor growth in all the treated mice”. In the series with mammalian PORCN, the “inhibition of the activity of mammalian porcupine” value is reported as “inhibit the activity of mammalian porcupine”.
